Experimental data: US20240358672A1, “APPLICATION OF GENISTEIN AND ITS PHOSPHATE ESTER DERIVATIVE AND PHARMACEUTICAL COMPOSITION COMPRISING THE SAME” (National Taiwan University, priority 2023, published 2024)

Columns and labels:
hiPSC-ECs [1] = test: Monocyte (U937) adhesion assay on hiPSC-ECs; conditions: 5 μM Δ^9-THC alone, 48 hours
[2] = system: human endothelial cells (HUVECs and HCAECs); test: CellTiter-Glo cell viability, human endothelial cells; conditions: increasing concentrations of Δ^9-THC, 48 hours
hiPSC-ECs [3] = test: CellROX oxidative stress assay / ROS-Glo H2O2 assay in hiPSC-ECs; conditions: 5 μM Δ^9-THC alone, 48 hours
hiPSC-ECs [4] = test: CellTiter-Glo cell viability, hiPSC-ECs; conditions: various concentrations, 24 or 48 hours
[5] = system: LDL receptor knockout mice (B6.129S7-Ldlr^tm1Her/J); test: Chronic atherosclerosis in Ldlr−/− mice on high-fat diet; assay type: in vivo, mouse; conditions: HFD 12 weeks
Text: FIG. 9A to 9E illustrate the effect of Δ^9-THC and genistein on the formation of chronic atherosclerosis according to Example 10. FIG. 9A: The body weights of Ldlr^−/− mice after exposure to (1) vehicle control (n=10), (2) Δ^9-THC (n=12), or (3) Δ^9-THC plus genistein (n=12). FIG. 9B: Lipid profiles of serum samples (left panel) and blood pressure (right panel) of Ldlr^−/− mice after exposure to (1) vehicle control (n=10 (left), n=3 (right)), (2) Δ^9-THC (n=12 (left), n=4 (right)), and (3) Δ^9-THC plus genistein (n=12 (left), n=4 (right)). The blood pressure was measured by tail-cuff. FIG. 9C: Oil red O staining of atherosclerotic plaques in cross-sections at the aortic root level (upper panel). Quantitation of atherosclerotic plaques: (1) vehicle control (n=10), (2) Δ^9-THC (n=10), and (3) Δ^9-THC plus genistein (n=11) (bottom panel). FIG. 9D: Gross images of oil red O stained Ldlr^−/− thoracic aorta are shown (left panel). Quantification of plaque size by en face analysis of thoracic aorta after exposure to (1) vehicle control (n=10), (2) Δ^9-THC (n=12), or (3) Δ^9-THC plus genistein (n=12). FIG. 9E: Immunostaining of CD68 in cross-sections at the aortic root level (upper panel). Quantitation of CD68-positive area from (1) vehicle control (n=10), (2) Δ^9-THC (n=9), and (3) Δ^9-THC plus genistein (n=10) (bottom panel).
In this part, In order to investigate the effect of Δ^9-THC and genistein in chronic atherosclerosis formation, LDL receptor knockout mice (B6.129S7-Ldlr^tm1Her/J) were fed a high-fat diet (HFD) for 12 weeks and treated with (1) vehicle control (n=10 to 12/group), (2) Δ^9-THC (n=10 to 12/group, administered Δ^9-THC 1 mg/kg), or (3) Δ^9-THC and genistein (n=10 to 12/group, administered Δ^9-THC 1 mg/kg plus genistein 50 mg/kg). […] After 12 weeks of HFD, the mice were euthanized, and the atherosclerotic lesion area was examined by cross-sections of the aortic root and an en face analysis of the thoracic aorta. […] Macrophage recruitment in the aortic root was analyzed using aortic plaque stained with an anti-CD68 antibody.

HUVECs = test: qPCR gene expression in HUVECs; conditions: 5 μM Δ^9-THC, 48 hours, normalized to GAPDH
[6] = Plasma concentration by LC-MS analysis; conditions: Δ^9-THC 1 mg/kg
hiPSC-ECs [7] = test: Wash-out experiments, inflammation-related gene expression in hiPSC-ECs; conditions: 5 μM Δ^9-THC 48 hours, then fresh medium
[8] = In vivo fluorescence imaging (IVIS) biodistribution; conditions: inferred from BODIPY517/547-genistein distribution
Protocol: High-magnification images of the green-boxed area are shown with the scale bar at 100 mm. […] Total cell lysates were prepared, and the expression of phosphorylated NF-κB and NF-κB was analyzed by western blot analysis. Immunoblots were quantified by ImageJ software (left panel). […] The in vivo fluorescence images were detected by the IVIS Spectrum at indicated time points. All mice were sacrificed at 48 hours, and major organs were collected and then fixed using formalin (left panel). Fluorescence images were quantified using the IVIS imaging system. […] Images of the brain, heart and lung, thoracic aorta, liver, spleen, kidney, intestine, colon, and blood were obtained from mice (n=5) (right panel). Fluorescence images were quantified using the ImageJ software (middle bottom).

CB1 receptor = CB1 receptor (Homo sapiens, UniProt P21554); test: GTPase-Glo assay (in vitro GTPase assay); assay type: biochemical
Sequence of CB1 receptor (P21554 whole entry): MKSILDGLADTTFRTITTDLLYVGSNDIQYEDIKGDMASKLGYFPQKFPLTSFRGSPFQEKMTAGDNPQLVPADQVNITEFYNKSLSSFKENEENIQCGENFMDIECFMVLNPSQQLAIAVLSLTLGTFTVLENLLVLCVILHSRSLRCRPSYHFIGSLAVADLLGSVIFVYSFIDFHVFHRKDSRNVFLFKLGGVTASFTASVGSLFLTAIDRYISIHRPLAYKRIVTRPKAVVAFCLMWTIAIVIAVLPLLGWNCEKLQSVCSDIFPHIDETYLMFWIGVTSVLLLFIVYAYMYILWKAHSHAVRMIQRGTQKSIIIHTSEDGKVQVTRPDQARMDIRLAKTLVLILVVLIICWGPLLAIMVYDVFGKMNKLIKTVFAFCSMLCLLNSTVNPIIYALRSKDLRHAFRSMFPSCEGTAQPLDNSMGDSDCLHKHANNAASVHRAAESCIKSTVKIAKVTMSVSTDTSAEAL

various organs = conditions: in vivo
[9] = system: WT hiPSC-ECs and CB1 CRISPRi hiPSC-ECs; test: TNF-α challenge of WT and CB1 CRISPRi hiPSC-ECs; conditions: 10 ng/ml TNF-α with 10 μM genistein
[10] = Δ^9-THC 1 mg/kg plus genistein 50 mg/kg

Q: For `CCCCCc1cc(O)c2c(c1)OC(C)(C)[C@@H]1CCC(C)=C[C@@H]21` [Δ^9-THC, Δ^9-tetrahydrocannabinol], which “monocyte adhesion to hiPSC-ECs” value (hiPSC-ECs [1]) is on record?
A: Its value is “increased adhesion”.

Q: And the “cytotoxicity (cell viability)” value [2]?
A: The value was “induced cytotoxicity”.

Q: What about the “cellular oxidative stress (CellROX)” value (hiPSC-ECs [3]) of the same molecule?
A: The value was “induced cellular oxidative stress”.

Q: What about the “cytotoxicity (cell viability)” value (hiPSC-ECs [4]) of the same molecule?
A: The value was “induced cytotoxicity”.

Q: And the “CD68-positive area in the aortic root” value ([5]; Δ^9-THC 1 mg/kg)?
A: Its value is “significantly increased”.

Q: And the “plaque size, cross-sections of the aortic root” value ([5]; Δ^9-THC 1 mg/kg)?
A: Its value is “significantly increased plaque size”.

Q: And the “serum lipid profiles or blood pressure” value ([5]; Δ^9-THC 1 mg/kg)?
A: Its value is “Neither Δ^9-THC nor cotreatment with Δ^9-THC and genistein affected”.

Q: What about the antioxidant-related gene expression (HUVECs) of the same molecule?
A: Its antioxidant-related gene expression is “reduced the antioxidant-related gene expression”.

Q: What about the “expression of inflammation-related genes” value (HUVECs) of the same molecule?
A: Its value is “induced the expression of inflammation-related genes”.

Q: And the plasma concentration [6]?
A: The plasma concentration was ~100 ng/mL.

Q: And the “time the induced expression of proinflammatory cytokines and chemokines was sustained (recovery time)” value (hiPSC-ECs [7])?
A: Its value is 8 to 10 days.

Q: Which “blood-brain barrier (BBB) penetration” value [8] does the source give for `O=c1c(-c2ccc(O)cc2)coc2cc(O)cc(O)c12` [genistein] here?
A: The value was “poor blood-brain barrier (BBB) penetration”.

Q: And the “function at CB1 in in vitro GTPase assay” value (CB1 receptor)?
A: The value was “neutral antagonist”.

Q: What about the “GTP turnover compared with Apo” value (CB1 receptor; GTPase-Glo assay) of the same molecule?
A: The value was “same GTP turnover as Apo”.

Q: And the “toxicity to various organs” value (various organs)?
A: Its value is “did not exhibit any toxicity to various organs”.

Q: What about the “CD68-positive area in the aortic root” value [5, 10] of the same molecule?
A: The value was “rescued”.

Q: And the “plaque formation, en face analysis of the thoracic aorta (oil red O)” value [5, 10]?
A: Its value is “improvement of plaque formation”.

Q: And the “plaque size, cross-sections of the aortic root” value [5, 10]?
A: The value was “ameliorated plaque size”.

Q: And the “serum lipid profiles or blood pressure” value [5, 10]?
A: Its value is “Neither Δ^9-THC nor cotreatment with Δ^9-THC and genistein affected”.

Q: And the “expression of ILIA” value ([9]; CB1 CRISPRi hiPSC-ECs)?
A: Its value is “increased significantly”.

Q: And the “TNF-α-increased expression of CXCR8” value ([9]; WT hiPSC-ECs)?
A: Its value is “attenuated”.

Q: And the “TNF-α-increased expression of IL6” value ([9]; WT hiPSC-ECs)?
A: The value was “attenuated”.

Q: What about the “expression of ILIA” value ([9]; WT hiPSC-ECs) of the same molecule?
A: The value was “decreased”.

Q: And the “TNF-α-increased expression of SOD1” value ([9]; WT or CB1 CRISPRi hiPSC-ECs)?
A: Its value is “not attenuated”.
